{"source": "patent US11261210B2", "about": "“Glycosylated antitumor ether lipids as novel cancer stem cell cytotoxic agents” (UNIVERSITY OF MANITOBA, priority 2012, dated 2022)", "key": {"BT-474 cancer stem cells": {"system": "BT-474 cancer stem cells", "assay": "BT-474 cancer stem cell spheroid formation", "format": "cell-based, human", "settings": "BT474 cancer stem cells, FIG. 1B", "method": "FIG. 1. A. Effect of β-C-Gln (β-AC1) on BT-474 cancer stem cell spheroid formation. BT-474 cancer stem cells were obtained by staining BT474 cells for ALDH1 and sorting the stained from unstained cells by flow cytometry. The ALDH1 stained cells were grown in ultra-low adhesion 6-well plates in mammocult medium for 7 days. The spheroids were isolated and trypsinised to generate single cells. The cells were then seeded for 2 days in ultra-low adhesion 6-well plates, and subsequently incubated in the absence or presence of C-Gln for up to 12 days. The media was replenished after 6 days. B. Effect of β-O-Gln (β-AO1), α-O-Gln (α-AO1), or ET-18-OCH3 on BT-474 cancer stem cell spheroid formation.\nBreast cancer stem cell enriched cell population was obtained by staining breast cancer cell lines BT-474 and JIMT-1 for aldehyde dehydrogenase 1 (ALDH1) using the assay kit from Stem Cell Technologies (Vancouver BC, Canada) according to the instructions of the manufacturer with the appropriate controls. […] The cell numbers were determined with a Coulter ZM counter and the cells were seeded into the appropriate low adhesion tissue culture ware for various studies. […]"}, "BT474 cancer stem cells": {"system": "BT474 cancer stem cells", "assay": "Trypan blue dye exclusion viability of BT474 cancer stem cells", "format": "cell-based, human", "settings": "BT474 cancer stem cells incubated with compound", "method": "Trypan blue dye exclusion assay using the TC10 automated cell counter (BioRad) was also used for some studies.\nWe investigated the effects of the GAELs and the ALPET-18-OCH3 on the ability of the cancer stem cells to form tumorspheres. […] This was a concentration dependent event and at concentrations greater than 10 μM spheroid formation was completely disrupted."}, "[1]": {"system": "BT-474 stem cell spheroids", "assay": "Morphology of BT-474 stem cell spheroids under static conditions", "format": "cell-based, human", "settings": "after 72 h treatment, FIG. 5A", "method": "FIG. 5. A. Effect of β-O-Gln, C-Gln or ET-18-OCH3 on morphology of JIMT1 stem cell spheroids. B. Effect of β-O-Gln, α-O-Gln or ET-18-OCH3 on morphology of BT-474 stem cell spheroids. BT-474 cancer stem cells were grown for 7 days in ultra low adhesion 6 well plates. The tumorspheres formed were harvested, trypsinised and cell numbers were determined. Equal numbers of cells were dispersed into 48-well plates in mammocult medium and incubation was under static conditions. After spheres were formed, they were incubated with β-O-Gln, α-O-Gln or β-C-Gln (0, 10, or 30 μM) for 6 days. The medium was replenished after 3 days. Images in FIG. 5A were taken at day 0 and 72 h following addition of the compounds. Images in FIG. 5B were taken after 6 days of incubation with the compounds.\nThe effects of the GAELs, β-O-Gln, α-O-Gln or C-Gln on the growth and viability of tumorspheres growing under static conditions was also investigated. Studies were also conducted with ET-18-OCH3 as a representative of the ALP subclass and an apoptosis inducing compound. Under static conditions a large number of spheroids are formed in control incubations with the vehicle (0.1% EtOH). […] Complete disintegration is observed after incubation with GAELs for 6 days (FIG. 5B). […] Thus, while some disintegration had occurred it was not as comprehensive as those observed with the GAELs."}, "[2]": {"system": "JIMT-1 stem cell spheroids", "assay": "Morphology of JIMT-1 stem cell spheroids", "format": "cell-based, human", "method": "FIG. 7. A. Effect of β-O-Gln, β-C-Gln or ET-18-OCH3 on morphology of JIMT-1 stem cell spheroids. B. Effect of β-O-Gln, α-O-Gln or ET-18-OCH3 on morphology of JIMT-1 stem cell spheroids. JIMT-1 cancer stem cells were grown for 7 days in ultra low adhesion 6 well plates. The tumorspheres formed were harvested, trypsinised and cell numbers were determined. Equal numbers of cells were dispersed into 48-well non-treated plates in mammocult medium and incubated in a CO2 incubator under static conditions. After spheres were formed, O-Gln, C-Gln or ET-18-OCH3 were added (0, 10, 20 and 30 μM) and incubation was for a total of 6 days with media supplementation after 3 days. Images for FIG. 7A were taken at day 0 and after 72 h following addition of the compounds. Images for FIG. 7B were taken after 6 days incubation with the compounds.\nThe above studies were repeated with JIMT-1 spheroids."}, "[3]": {"system": "JIMT1 stem cell tumorspheres", "assay": "Viability of JIMT1 stem cell tumorspheres (MTS assay)", "format": "cell-based, human", "settings": "6 days", "method": "FIG. 8. Effect of β-O-Gln, α-O-Gln, β-C-Gln and ET-18-OCH3 on the viability of JIMT1 stem cell tumorspheres. BT-474 cancer stem cells were grown for 7 days in ultra low adhesion 6-well plates. The tumorspheres formed were harvested, trypsinised and cell numbers were determined. Equal numbers of cells were dispersed into 48-well non-treated plates in mammocult medium and incubation was under static conditions. Wells with only medium but no cells were treated in an identical manner to serve as blanks. After spheres were formed, O-Gln, C-Gln or ET-18-OCH3 (0, 10, 20, 30 μM) were added and incubation was for a total of 6 days. At the end of the incubation, the MTS reagent was added to each well and the plates were mixed in a nutator in a 5% CO2 incubator for 4 h. The absorbance of each well was read at 470 nm. The results are the means±standard deviation of 4 independent determinations.\nCell viability assay: Cell viability was determined by the Cell Titre 96 Aqueous One solution proliferation assay ((MTS assay; Promega) according to the instructions of the manufacturer.\nThe viability of cells in spheroids incubated with 20 or 30 μM ET-18-OCH3 was between 30-40% of controls."}, "[4]": {"settings": "cells with a functioning apoptotic pathway; cited from earlier work"}}, "data": [{"smiles": "CCCCCCCCCCCCCCCCOC[C@H](CO[C@@H]1O[C@H](CO)[C@@H](O)[C@H](O)[C@H]1N)OC", "note": "[β-O-Gln, 1-O-hexadecyl-2-O-methyl-3-O-(2′-amino-2′-deoxy-β-D-glucopyranosyl)-sn-glycerol]", "values": [{"measurement": "spheroid formation", "setting": "BT-474 cancer stem cells", "value": "unable to form spheroids"}, {"measurement": "viability (trypan dye exclusion)", "setting": "BT474 cancer stem cells", "value": "not viable"}, {"measurement": "spheroid integrity", "setting": "[1]", "value": "significant disintegration"}, {"measurement": "spheroid morphology and compactness", "setting": "[2]; 10-30 μM, after 3 days, FIG. 7A", "value": "profound effect on the morphology and compactness"}, {"measurement": "spheroid integrity", "setting": "[2]; 6 days, FIG. 7B", "value": "complete disintegration of the spheroids"}, {"measurement": "loss of viability", "setting": "[3]; 10 μM", "value": 90, "unit": "%"}, {"measurement": "loss of viability", "setting": "[3]; 20 or 30 μM", "value": "Complete loss of viability"}, {"measurement": "caspase 3 or 9 activation during cell death", "setting": "[4]", "value": "without activation of caspase 3 or 9"}]}]}
